Assay results reported in patent US11098038B2, “Imidazole-based anticancer agents and derivatives thereof, and methods of making and using same” (The University of Toledo, priority 2017, dated 2021).

Key:
Type in all cases: cell-based
SK-MEL-5 = test: NCI 60 screen, SK-MEL-5; conditions: Homo sapiens, Melanoma
Protocol: (§1) The compounds synthesized were tested at the National Cancer Institute (NCI) for anti-proliferative activity in the 60 human tumor cell line assay.

LOX IMVI = test: NCI 60 screen, LOX IMVI; conditions: Homo sapiens, Melanoma
Protocol: as §1

U251 = test: NCI 60 screen, U251; conditions: Homo sapiens, U-251, CNS
Protocol: as §1

NCI-H23 = test: NCI 60 screen, NCI-H23; conditions: Homo sapiens, Non-Small Cell Lung
Protocol: as §1

OVCAR-8 = test: NCI 60 screen, OVCAR-8; conditions: Homo sapiens, Ovarian
Protocol: as §1

SW-620 = test: NCI 60 screen, SW-620; conditions: Homo sapiens, Colon
Protocol: as §1

UO-31 = test: NCI 60 screen, UO-31; conditions: Homo sapiens, Renal
Protocol: as §1

BT-549 = test: NCI 60 screen, BT-549; conditions: Homo sapiens, Breast
Protocol: as §1

SNB-75 = test: NCI 60 screen, SNB-75; conditions: Homo sapiens, CNS
Protocol: as §1

MDA-MB-231/ATCC = test: NCI 60 screen, MDA-MB-231/ATCC; conditions: Homo sapiens, Breast
Protocol: as §1

NCI-H522 = test: NCI 60 screen, NCI-H522; conditions: Homo sapiens, Non-Small Cell Lung
Protocol: as §1

HOP-92 = test: NCI 60 screen, HOP-92; conditions: Homo sapiens, Non-Small Cell Lung
Protocol: as §1

SF-295 = test: NCI 60 screen, SF-295; conditions: Homo sapiens, CNS
Protocol: as §1

MALME-3M = test: NCI 60 screen, MALME-3M; conditions: Homo sapiens, Melanoma
Protocol: as §1

HL-60(TB) = test: NCI 60 screen, HL-60(TB); conditions: Homo sapiens, Leukemia
Protocol: as §1

MCF7 = test: NCI 60 screen, MCF7; conditions: Homo sapiens, Breast
Protocol: as §1

EKVX = test: NCI 60 screen, EKVX; conditions: Homo sapiens, Non-Small Cell Lung
Protocol: as §1

CAKI-1 = test: NCI 60 screen, CAKI-1; conditions: Homo sapiens, Renal
Protocol: as §1

COLO 205 = test: NCI 60 screen, COLO 205; conditions: Homo sapiens, Colon
Protocol: as §1

HOP-62 = test: NCI 60 screen, HOP-62; conditions: Homo sapiens, Non-Small Cell Lung
Protocol: as §1

786-0 = test: NCI 60 screen, 786-0; conditions: Homo sapiens, Renal
Protocol: as §1

NCI-322M = test: NCI 60 screen, NCI-322M; conditions: Homo sapiens, Non-Small Cell Lung
Protocol: as §1

TK-10 = test: NCI 60 screen, TK-10; conditions: Homo sapiens, Renal
Protocol: as §1

MDA-MB-468 = test: NCI 60 screen, MDA-MB-468; conditions: Homo sapiens, Breast
Protocol: as §1

HCC-2998 = test: NCI 60 screen, HCC-2998; conditions: Homo sapiens, Colon
Protocol: as §1

OVCAR-4 = test: NCI 60 screen, OVCAR-4; conditions: Homo sapiens, Ovarian
Protocol: as §1

HS 578T = test: NCI 60 screen, HS 578T; conditions: Homo sapiens, Breast
Protocol: as §1

RPMI-8226 = test: NCI 60 screen, RPMI-8226; conditions: Homo sapiens, Leukemia
Protocol: as §1

MDA-MB-435 = test: NCI 60 screen, MDA-MB-435; conditions: Homo sapiens, Melanoma
Protocol: as §1

[1] = test system: chromosome alignment, centromeres, and spindle body; test: Fluorescence microscopy of chromosome alignment, centromeres and spindle body; conditions: FIGS. 8A-8B
Description: FIGS. 8A-8B: Color images showing effects of compound 25 on chromosome alignment, centromeres, and spindle body. Microtubules that make up the mitotic spindle are detected with an antibody linked to a green fluorophore, which was detected with a fluorescence microscope. Centromeres were detected with a far red fluorophore (they are pseudocolored pink). DNA was detected with Hoechst DNA stain, which is blue.
In normal cells (FIG. 8A, upper two panels), chromosomes line up between the spindle poles at metaphase. In cells treated with compound 25 for several hours (FIG. 8A, lower two panels), cells still enter mitosis but centromeres are found all over the cell (not just in the middle between the poles of the spindle). […] However, when ZM is combined with compound 25, what was observed was a very dramatic disruption of spindle architecture. […] Without wishing to be bound by theory, it is believed that both Aurora B and the targets of compound 25 work in parallel to control tubulin function. When either one is inhibited alone, there is no effect since the other pathway compensates. When both are inhibited, the defect is detected.

SR = test: NCI 60 screen, SR; conditions: Homo sapiens, Leukemia
Protocol: as §1

ACHN = test: NCI 60 screen, ACHN; conditions: Homo sapiens, Renal
Protocol: as §1

MOLT-4 = test: NCI 60 screen, MOLT-4; conditions: Homo sapiens, Leukemia
Protocol: as §1

SF-268 = test: NCI 60 screen, SF-268; conditions: Homo sapiens, CNS
Protocol: as §1

NCI-460 = test: NCI 60 screen, NCI-460; conditions: Homo sapiens, Non-Small Cell Lung
Protocol: as §1

HT29 = test: NCI 60 screen, HT29; conditions: Homo sapiens, HT-29, Colon
Protocol: as §1

KM12 = test: NCI 60 screen, KM12; conditions: Homo sapiens, Colon
Protocol: as §1

DU-145 = test: NCI 60 screen, DU-145; conditions: Homo sapiens, Prostatic
Protocol: as §1

PC-3 = test: NCI 60 screen, PC-3; conditions: Homo sapiens, Prostatic
Protocol: as §1

SK-MEL-2 = test: NCI 60 screen, SK-MEL-2 (first line); conditions: Homo sapiens; Melanoma, SK-MEL-2 (first of two lines so named, r37)
Protocol: as §1

A498 = test: NCI 60 screen, A498; conditions: Homo sapiens, Renal
Protocol: as §1

IGROV1 = test: NCI 60 screen, IGROV1; conditions: Homo sapiens, IGROV-1, Ovarian
Protocol: as §1

HCT-116 = test: NCI 60 screen, HCT-116; conditions: Homo sapiens, Colon
Protocol: as §1

UACC-257 = test: NCI 60 screen, UACC-257; conditions: Homo sapiens, Melanoma
Protocol: as §1

Q: Which results are given for O=C(Cc1ccc(/C=C/C(=O)c2ncc[nH]2)cc1)Nc1ccc(Cl)cc1 [Compound 25, (E)-2-(-4 (3-(1H-imidazol-2-yl)-3-oxoprop-1-en-1-yl)phenyl)-N-(4-chlorophenyl)acetamide]?
A: GI50 (SK-MEL-5): 6.17 µM; GI50 (LOX IMVI): 0.87 µM; GI50 (U251): 1.02 µM; GI50 (NCI-H23): 2.97 µM; GI50 (OVCAR-8): 3.65 µM; GI50 (SW-620): 1.43 µM; GI50 (UO-31): 1.69 µM; GI50 (BT-549): 3.46 µM; GI50 (SNB-75): 3.63 µM; GI50 (MDA-MB-231/ATCC): 4.27 µM; GI50 (NCI-H522): 2.6 µM; GI50 (HOP-92): 5.74 µM; GI50 (SF-295): 3.33 µM; GI50 (MALME-3M): 6.24 µM; GI50 (HL-60(TB)): 3.8 µM; GI50 (MCF7): 0.742 µM; GI50 (EKVX): 5.68 µM; GI50 (CAKI-1): 4.88 µM; GI50 (COLO 205): 3.01 µM; GI50 (HOP-62): 3.19 µM; GI50 (786-0): 1.13 µM; GI50 (NCI-322M): 4 µM; GI50 (TK-10): 5.41 µM; GI50 (MDA-MB-468): 1.68 µM; GI50 (HCC-2998): 3.73 µM; GI50 (OVCAR-4): 4.11 µM; GI50 (HS 578T): 18.8 µM; GI50 (RPMI-8226): 0.857 µM; GI50 (MDA-MB-435): 4.14 µM; Spindle body / spindle architecture [1]: the spindle body remained intact; Chromosome alignment / centromere position ([1]; cells treated for several hours): chromosomes were misaligned; GI50 (SR): 0.798 µM; GI50 (ACHN): 4.04 µM; GI50 (MOLT-4): 1.8 µM; GI50 (SF-268): 1.65 µM; GI50 (NCI-460): 3.43 µM; GI50 (HT29): 0.886 µM; GI50 (KM12): 1.3 µM; GI50 (DU-145): 1.7 µM; GI50 (PC-3): 2.39 µM; GI50 (SK-MEL-2): 5.53 µM; GI50 (A498): 5.48 µM; GI50 (IGROV1): 3.59 µM; GI50 (HCT-116): 0.848 µM; GI50 (UACC-257): 7.24 µM
